Experimental data from BindingDB's records for doi:10.7270/Q2TX3CSC (Vanderbilt Screening Center for GPCRs, Ion Channels and …, 2009).
Non-standard residues stand in square brackets, D forms with d. Residues, ends and D or L forms follow the SMILES beside them. ξ: configuration not given here. *: point of attachment. ξF = NC(Cc1ccccc1)C(=O)O; Cbz = O=C(OCc1ccccc1)*

Biological target: T1, Solute carrier family 12 member 5 (Homo sapiens, UniProt Q9H2X9)
T1 sequence (Q9H2X9 whole entry): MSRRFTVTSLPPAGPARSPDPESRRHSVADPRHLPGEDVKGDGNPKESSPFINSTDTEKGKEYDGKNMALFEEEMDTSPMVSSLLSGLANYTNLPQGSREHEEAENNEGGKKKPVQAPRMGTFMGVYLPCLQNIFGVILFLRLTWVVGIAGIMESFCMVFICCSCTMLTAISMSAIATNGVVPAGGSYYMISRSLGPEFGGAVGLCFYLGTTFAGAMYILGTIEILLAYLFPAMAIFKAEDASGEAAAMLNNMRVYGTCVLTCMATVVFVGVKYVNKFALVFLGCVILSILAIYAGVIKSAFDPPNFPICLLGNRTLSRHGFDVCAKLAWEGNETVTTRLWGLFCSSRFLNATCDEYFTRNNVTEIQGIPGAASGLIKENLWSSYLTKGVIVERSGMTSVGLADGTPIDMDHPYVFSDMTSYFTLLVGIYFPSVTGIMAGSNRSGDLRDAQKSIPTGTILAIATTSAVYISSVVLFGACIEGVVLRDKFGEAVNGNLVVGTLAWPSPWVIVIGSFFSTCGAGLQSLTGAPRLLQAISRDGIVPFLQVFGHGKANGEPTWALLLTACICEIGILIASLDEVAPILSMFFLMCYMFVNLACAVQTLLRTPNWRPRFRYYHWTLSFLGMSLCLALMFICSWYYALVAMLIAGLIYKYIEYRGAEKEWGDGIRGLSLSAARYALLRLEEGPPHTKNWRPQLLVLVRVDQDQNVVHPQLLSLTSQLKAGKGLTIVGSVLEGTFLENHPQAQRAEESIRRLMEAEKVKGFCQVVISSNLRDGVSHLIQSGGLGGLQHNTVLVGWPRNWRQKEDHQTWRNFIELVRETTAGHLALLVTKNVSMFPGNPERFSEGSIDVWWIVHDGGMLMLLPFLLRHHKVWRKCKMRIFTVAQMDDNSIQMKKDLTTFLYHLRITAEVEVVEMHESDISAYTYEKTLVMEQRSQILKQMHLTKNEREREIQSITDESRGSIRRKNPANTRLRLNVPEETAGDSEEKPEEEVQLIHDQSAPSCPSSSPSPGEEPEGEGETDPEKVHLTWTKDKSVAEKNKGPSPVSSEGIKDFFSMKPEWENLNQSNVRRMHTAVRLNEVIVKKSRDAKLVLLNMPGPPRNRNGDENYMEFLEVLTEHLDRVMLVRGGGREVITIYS
Test: concentration-response of KCC2 transport modulators – cell-based, HEK293 KCC2, FluoZin-2 fluorescence, dose response (AID 1736)

[1] = inactive by the depositor's call

Compound `Cc1ccc(NC(=O)CSc2ccc(-c3ccco3)nn2)cc1` [2-[6-(furan-2-yl)pyridazin-3-yl]sulfanyl-N-(4-methylphenyl)acetamide] has an EC50 of 3.48 µM.

For `O=C(O)c1cc([N+](=O)[O-])ccc1NCc1ccccc1` [2-(benzylamino)-5-nitro-benzoic acid], the EC50 was 4.19 µM.

`O=[N+]([O-])c1cc(-n2c(O)c3c(c2O)CCCC3)ccc1NC1CCN(Cc2ccccc2)CC1` [2-[3-nitro-4-[[1-(phenylmethyl)-4-piperidinyl]amino]phenyl]-3a,4,5,6,7,7a-hexahydroisoindole-1,3-dione] was tested, and the EC50 was 221 µM.

Compound `Cc1oc(-c2ccccc2)nc1C[S+]([O-])CC(=O)N1CCc2ccccc2C1` (stereo not drawn) [1-(3,4-dihydro-1H-isoquinolin-2-yl)-2-[(5-methyl-2-phenyl-1,3-oxazol-4-yl)methylsulfinyl]ethanone] has an EC50 of 7.74 µM.

With `CN(Cc1ccccc1)c1nc2nonc2nc1N1CCCC(CN2CCCC2=O)C1` (stereo not drawn) [1-[(1-{6-[benzyl(methyl)amino][1,2,5]oxadiazolo[3,4-b]pyrazin-5-yl}piperidin-3-yl)methyl]pyrrolidin-2-one] the EC50 was 2.43 µM.

In the case of `Cc1cc(C(=O)COC(=O)CCc2nc3ccccc3s2)c(C)n1C` [3-(1,3-benzothiazol-2-yl)propanoic acid [2-oxo-2-(1,2,5-trimethyl-3-pyrrolyl)ethyl] ester], the EC50 is reported as 97.3 µM.

Work on `O=c1[nH]c2c(s1)C(c1ccccc1)c1c(c(O)n(-c3ccccc3)c1O)S2` (stereo not drawn) yielded an EC50 of 0.0665 µM.

Compound `CCc1ccc(Nc2nnc(SCc3cc(=O)n4ccsc4n3)s2)cc1` [7-[[5-(4-ethylanilino)-1,3,4-thiadiazol-2-yl]sulfanylmethyl]-[1,3]thiazolo[3,2-a]pyrimidin-5-one] has an EC50 of 0.202 µM.

Compound `O=C(CSc1nnnn1-c1ccccc1)Nc1nsc(-c2ccccc2)n1` [2-(1-phenyltetrazol-5-yl)sulfanyl-N-(5-phenyl-1,2,4-thiadiazol-3-yl)acetamide] has an EC50 [1] of 1.4 µM.

In the case of `O=C(NN1C(=O)/C(=C/c2nc3ccccc3[nH]2)SC1=S)c1ccccc1` [N-[(5Z)-5-(1H-benzimidazol-2-ylmethylidene)-4-oxidanylidene-2-sulfanylidene-1,3-thiazolidin-3-yl]benzamide], the EC50 is reported as 0.38 µM.

In the case of `Cc1ccc(-c2n[nH]c(=S)n2NC=CCc2ccccc2[N+](=O)[O-])cc1`, the EC50 is reported as 1.62 µM.

Compound `COc1cc(OC)c(C2=NOC(C(=O)N3CCc4ccccc4C3)C2)cc1Cl` (stereo not drawn) [2-{[3-(5-chloro-2,4-dimethoxyphenyl)-4,5-dihydro-5-isoxazolyl]carbonyl}-1,2,3,4-tetrahydroisoquinoline] has an EC50 of 6.59 µM.

Compound `Cc1cc2ccccn2c1C(=O)c1nc(N2CCOCC2)ncc1Cl` [(5-chloranyl-2-morpholin-4-yl-pyrimidin-4-yl)-(2-methylindolizin-3-yl)methanone] has an EC50 [1] of 11 µM.

For `O=C(CSc1nnc(-c2c[nH]c3ccccc23)o1)N1CCCCC1` [SMR000003748], the EC50 was 1.81 µM.

Work on `O=C(O)CC/C(=C\c1cccc(NC(=O)c2ccccc2Cl)c1)c1nc2ccccc2s1` [SMR000371789] yielded an EC50 [1] of 4.76 µM.

In the case of `CCOC(=O)CNC(=O)C(Cc1ccccc1)NC(=O)OCc1ccccc1` (stereo not drawn) [2-[[1-oxo-3-phenyl-2-(phenylmethoxycarbonylamino)propyl]amino]acetic acid ethyl ester] (Cbz-[ξF]-Gly-OEt), the EC50 is reported as 3.01 µM.

For `O=C(NCCc1cn2ccccc2n1)c1cc(COc2c(F)cccc2F)on1` [5-[(2,6-difluorophenoxy)methyl]-N-(2-imidazo[1,2-a]pyridin-2-ylethyl)-1,2-oxazole-3-carboxamide], the EC50 was 78.9 µM.

Compound `CC1Cc2ccccc2N1C(=O)CSc1nnnn1Cc1ccccc1` (stereo not drawn) [1-(2-methyl-2,3-dihydroindol-1-yl)-2-[[1-(phenylmethyl)-1,2,3,4-tetrazol-5-yl]sulfanyl]ethanone] has an EC50 of 13.6 µM.

For `Sc1nnc(CNc2cccc(Cl)c2)o1` [5-[(3-chloroanilino)methyl]-3H-1,3,4-oxadiazole-2-thione], the EC50 was 1.75 µM.

`NC(=O)COc1ccccc1/C=C1/SC(=O)N(CC(=O)N2CCc3ccccc3C2)C1=O` [2-[2-({3-[2-(3,4-dihydro-2(1H)-isoquinolinyl)-2-oxoethyl]-2,4-dioxo-1,3-thiazolidin-5-ylidene}methyl)phenoxy]acetamide] showed an EC50 of 32 µM.

With `COc1cc(C=NNC(=O)CN(Cc2ccccc2)S(=O)(=O)c2ccc3c(c2)OCCO3)ccc1O` [2,3-Dihydro-benzo[1,4]dioxine-6-sulfonic acid benzyl-(4-hydroxy-3-methoxy-benzylidene-hydrazinocarbonylmethyl)-amide] the EC50 was 2.79 µM.

`O=C(CN1C(=O)NC2(CCCC2)C1=O)Nc1nc(-c2ccc(F)cc2)cs1` [2-(2,4-diketo-1,3-diazaspiro[4.4]nonan-3-yl)-N-[4-(4-fluorophenyl)thiazol-2-yl]acetamide] showed an EC50 of 0.0699 µM.

`O=C(c1cc2c(s1)-c1ccccc1OC2)N1CCC2(CC1)OCCO2` [1,4-dioxa-8-azaspiro[4.5]decan-8-yl(4H-thieno[3,2-c][1]benzopyran-2-yl)methanone] gave an EC50 of 24.9 µM.

With `Cn1cc(SCC(=O)N2CCN(c3ccccc3)CC2)c2ccccc21` [2-(1-methylindol-3-yl)sulfanyl-1-(4-phenylpiperazin-1-yl)ethanone] the EC50 [1] was 78.4 µM.

`COc1ccc(C(=O)N2CCCC(c3ccccc3)C2)cc1` (stereo not drawn) [(4-methoxyphenyl)-(3-phenyl-1-piperidinyl)methanone] showed an EC50 of 7.32 µM.

`Cc1cc(C)c(C#N)c(N2CCN(Cc3ccccc3)CC2)n1` [2-(4-benzyl-1-piperazinyl)-4,6-dimethylnicotinonitrile] was tested, and the EC50 was 11.3 µM.

`COc1cc(C(=S)N2CCOCC2)ccc1OC(=O)Cc1ccc(F)cc1` [(2-methoxy-4-morpholin-4-ylcarbothioyl-phenyl) 2-(4-fluorophenyl)ethanoate] showed an EC50 of 29.4 µM.

In the case of `O=C(CSc1nnc(Cc2ccccc2)o1)c1ccc(F)cc1` [1-(4-fluorophenyl)-2-[[5-(phenylmethyl)-1,3,4-oxadiazol-2-yl]sulfanyl]ethanone], the EC50 is reported as 2.39 µM.

`COc1cc(C(=S)N2CCOCC2)cc(OC)c1OC(=O)Cc1ccccc1` [(2,6-dimethoxy-4-morpholin-4-ylcarbothioyl-phenyl) 2-phenylethanoate] showed an EC50 of 0.81 µM.

`Cc1ccc(-c2noc(CN3CCN(Cc4ccccc4)CC3)n2)cc1` [1-benzyl-4-{[3-(4-methylphenyl)-1,2,4-oxadiazol-5-yl]methyl}piperazine] gave an EC50 of 6.64 µM.

`Sc1nnc(C2(c3ccccc3)CCCC2)o1` [5-(1-phenylcyclopentyl)-3H-1,3,4-oxadiazole-2-thione] was tested, and the EC50 was 3.3 µM.

`Cc1ccc2[nH]c3c(N4CCN(Cc5ccccc5)CC4)ncnc3c2c1` [8-methyl-4-[4-(phenylmethyl)-1-piperazinyl]-5H-pyrimido[5,4-b]indole] gave an EC50 of 2.94 µM.

With `O=C(/C=C/c1ccccc1)Nc1scc(-c2ccccc2)c1C(=O)O` [2-[[(E)-1-oxo-3-phenylprop-2-enyl]amino]-4-phenyl-3-thiophenecarboxylic acid] the EC50 [1] was 0.134 µM.

`O=C(NCc1ccc2c(c1)OCO2)c1ccc(COc2cc(Cl)ccc2Cl)o1` [5-[(2,5-dichlorophenoxy)methyl]-N-piperonyl-2-furamide] showed an EC50 of 6.14 µM.

With `N#Cc1nc(Cc2cccc3ccccc23)oc1NCCN1CCOCC1` [5-(2-Morpholin-4-yl-ethylamino)-2-naphthalen-1-ylmethyl-oxazole-4-carbonitrile] the EC50 was 5.4 µM.

Work on `COc1cc(-c2nnc(CSc3nnc(Nc4ccc(C(C)C)cc4)s3)o2)cc(OC)c1OC` [MLS000391281] yielded an EC50 [1] of 2.2 µM.

For `CCOc1ccccc1CNC(=O)C1CCN(c2nc3ccccc3o2)CC1` [1-(1,3-benzoxazol-2-yl)-N-(2-ethoxybenzyl)isonipecotamide], the EC50 [1] was 95.9 µM.

With `O=S(=O)(NC1CCCC1)c1cccc(S(=O)(=O)N2CCC(n3nnc4ccccc43)CC2)c1` [3-(4-Benzotriazol-1-yl-piperidine-1-sulfonyl)-N-cyclopentyl-benzenesulfonamide] the EC50 was 4.9 µM.

Work on `O=C(CSc1ncccc1-c1nc2ccccc2[nH]1)N1CCN(c2ccccc2F)CC1` [MLS000033700] yielded an EC50 of 34.5 µM.

In the case of `Cc1[nH]c2ccccc2c1Cc1n[nH]c(=S)n1C`, the EC50 is reported as 6.59 µM.

Work on `CCOc1ccc(C(CC(=O)O)NC(=O)C(Sc2ccccc2)c2ccccc2)cc1` (stereo not drawn) [3-(4-ethoxyphenyl)-3-[(2-phenyl-2-phenylsulfanyl-ethanoyl)amino]propanoic acid] yielded an EC50 of 4060 µM.

Compound `CC1Cc2ccccc2N1C(=O)c1ccc(N2CCCC2)c([N+](=O)[O-])c1` (stereo not drawn) [(2-methyl-2,3-dihydroindol-1-yl)-(3-nitro-4-pyrrolidin-1-yl-phenyl)methanone] has an EC50 of 0.772 µM.

For `CCC(Cc1ccccc1)NC(=O)CN(C)S(=O)(=O)c1ccc2c(c1)c(=O)n(C)c(=O)n2C` (stereo not drawn) [2-[(1,3-dimethyl-2,4-dioxo-6-quinazolinyl)sulfonyl-methylamino]-N-(1-phenylbutan-2-yl)acetamide], the EC50 was 7.26 µM.
